# Where two headings read alike, the source gives them in different places.
# What was measured:
# [1] = test system: methicillin resistant Staphylococcus aureus (MRSA 40065); type: cell-based; conditions: [Cl+] 15 ppm, inoculum 10^6 cfu/ml
# Description: (§1) Pseudomonas aeruginosa (P. aeruginosa) (#73104, Gram-negative) and Staphylococcus aureus (MRSA) (#40065, Gram-positive) were used as the model microorganism to challenge the antibacterial function of the compounds. It should be noticed that both P. aeruginosa and MRSA are biosafety level 2 microorganisms and potentially biohazardous, therefore the following antibacterial assessments were carried out in a Biological Safety Level 2 cabinet and safety precautions were strictly followed.
# (§2) Tryptone Soya agar plates were used as platforms for bacterial cell growth and were prepared following the instructions on the bottle (CM 0131, OXOID). The prepared agar was kept at 65° C. after being autoclaved and the resulting agar plates were stored in fridge at 3-4° C. All glassware and related materials were subjected to autoclave or disinfection with 70% ethanol prior to use.
# (§3) Several colonies of each bacteria type were suspended in broth solutions (cation-supplemented Mueller-Hinton broth for P. aeruginosa and tryptic soy broth for MRSA) whose concentrations were equivalent to a 0.5 McFarland standard (1×10^8 cfu/ml). This suspension was then diluted 1:100 and 20 μL of the diluted suspension was further diluted in 60 ml of cation-supplemented Mueller-Hinton broth or tryptic soy broth. Then the prepared bacteria inoculums were incubated overnight at 37° C. to obtain logarithmic-phase cultures. For each microbial study, 0.2 ml (0.02 ml for P. aeruginosa) of the cell suspension was diluted in 19.8 mL (19.98 ml for P. aeruginosa) of phosphate-buffered Saline (PBS, 0.1 M Sodium phosphate monobasic, 0.1 M Sodium phosphate dibasic, pH 7.4) to give a cell concentration of 10^6-10^7 cfu/mL (10^5 cfu/ml for P. aeruginosa). 30 μL of each synthesized compound solution (0.28 N stock solution) were added into the cell suspension to achieve a [Cl^+] of 15 ppm and start timing instantly. The mixture was vortexed several times during the reaction. After contact for the desired time intervals, 1.0 ml cell suspension was withdrawn and added to 1.0 ml of 0.02 N sodium thiosulfate and/or Letheen (1% lecithin, 10% peptone and 0.5% tween 80 dissolved in PBS at pH 7.4) to quench the bactericidal effect. The quenched suspension was then serially diluted (10 times less concentrated than the previous one) and 100 μL of each dilution was placed onto agar plates. The same procedure was applied to the blanks as controls with the same matrices but with no synthesized compounds added. Bacterial colonies on the agar plates were enumerated after being incubated at 37° C. for 22 hours.
# (§4) Percentage reduction of bacteria (%)=(A−B)/A×100
# (§5) Where A is the number of bacterial colonies in the control (cfu/mL), and B is the number of bacteria colonies under the effect of the synthesized compounds.
# P. aeruginosa (73104) = assay: Antibacterial assessment in PBS suspension (Example 19); type: cell-based, Pseudomonas aeruginosa; conditions: [Cl+] 15 ppm, inoculum 10^5 cfu/ml
# Description: as §1, §2, §3, §4, §5
smiles,measurement,setting,value
CC1(C)C(=O)N(CC[N+](C)(C)C)C(=O)N1Cl.[Cl-] [Compound 10],Bacteria Reduction log10,"[1]; Table 10, contact 1 min",0.74 log10
same,Bacteria reduction %,"[1]; Table 10, contact 1 min",81.7%
same,Bacteria Reduction log10,"[1]; Table 10, contact 3 min",0.63 log10
same,Bacteria reduction %,"[1]; Table 10, contact 3 min",76.7%
same,Bacteria Reduction log10,"[1]; Table 10, contact 5 min",0.50 log10
same,Bacteria reduction %,"[1]; Table 10, contact 5 min",68.2%
same,Bacteria Reduction log10,"[1]; Table 10, contact 10 min",0.81 log10
same,Bacteria reduction %,"[1]; Table 10, contact 10 min",84.5%
same,Bacteria Reduction log10,"[1]; Table 10, contact 60 min",1.33 log10
same,Bacteria reduction %,"[1]; Table 10, contact 60 min",95.3%
same,Bacteria Reduction log10,"P. aeruginosa (73104); Table 10, contact 10 min",0.35 log10
same,Bacteria reduction %,"P. aeruginosa (73104); Table 10, contact 10 min",55.1%
same,Bacteria Reduction log10,"P. aeruginosa (73104); Table 10, contact 20 min",5.27 log10
same,Bacteria reduction %,"P. aeruginosa (73104); Table 10, contact 20 min",100%
same,Bacteria Reduction log10,"P. aeruginosa (73104); Table 10, contact 30 min",5.27 log10
same,Bacteria reduction %,"P. aeruginosa (73104); Table 10, contact 30 min",100%
same,Bacteria Reduction log10,"P. aeruginosa (73104); Table 10, contact 60 min",5.27 log10
same,Bacteria reduction %,"P. aeruginosa (73104); Table 10, contact 60 min",100%
